Measurements: patent US20230340012A1, “NATURAL AND SYNTHETIC COMPOUNDS FOR TREATING CANCER AND OTHER DISEASES” (PACIFIC ARROW LIMITED, priority 2009, published 2023)

System: cancer cells
Test: MTT cytotoxic assay of esterification products (Cytotoxicity activity)
Assay type: cell-based, human
Source text: The peaks, fractions and compounds are selected according to the activities of times studies and the changes of peaks. Selecting the HPLC fractions for isolation is according to the cytotoxic activity of the reaction product obtained at a specific time. The compounds having strong to weak activities are selected and isolated. Selecting the HPLC fractions for isolation may be according to the cytotoxic activity of times studies and the change of peaks. The anti-cancer activities are the MTT studies of bone (U2OS), lung (H460), bladder (HTB-9), ovary (ES2), colon (HCT116), pancreas (Capan), ovary(OVCAR3), prostate (DU145), skin (SK-Mel-5), mouth (KB), kidney (A498), breast (MCF-7), liver (HepG2), brain (T98G), leukemia (K562), cervix (HeLa).
Esterification of compound (A), (B), (C), (D1), (D2), (E), (F), (G), (H1), (H2), E4A, E4A2Y, (P1), P(2), terpene, isoprene, triterpenes, hydroxylated triterpenes, with acyl halide, wherein the halide comprise chloride, bromide, fluoride and iodide, wherein the acyl halide comprise acyl chloride, wherein acyl chloride comprise tigloyl chloride, angeloyl chloride, acetyl chloride, crotonoyl chloride, 3,3-Dimethylacryloyl chloride, senecioyl chloride, cinnamoyl chloride, pentenoyl chloride, hexanoyl chloride, benzoyl chloride, ethylbutyryl chloride, propionyl chloride, 2-propenoyl chloride, isobutyryl chloride, butyryl chloride, (2E)-2-pentenoyl chloride, 4-Pentenoyl chloride, 5-hexenoyl chloride, heptanoyl chloride, octanoyl chloride, nonanoyl chloride, decanoyl chloride, Lauroyl chloride, myristoyl chloride, oleoyl chloride. The compounds vary in composition when the time or temperature of the reaction is changed. The peaks, fractions and compounds are selected according to the activities of times studies and the changes of peaks. The compounds having strong to weak activities are selected and isolated. The anti-cancer activities (Cytotoxic Assay) are the MTT studies of bone (U2OS), lung (H460), bladder(HTB-9), ovary (ES2), colon (HCT116), pancreas (Capan), ovary(OVCAR3), prostate (DU145), skin (SK-Mel-5), mouth (KB), kidney (A498), breast (MCF-7), liver (HepG2), brain (T98G), leukemia (K562), cervix (HeLa). The active esterification products are purified with HPLC. The reaction product of mixtures and individual compounds are tested with MTT Cytotoxic Assay. Details of method are in Experiment 3 of the present application. A second esterification of compound can be selected from the above experiment results to produce new active compounds. A partial esterification compound is selected from the above experiments to perform a second or repeated with a third esterification with different acyl chloride in order to produce new active compounds with the experiments in the present application.
Method: 40 mg of triterpene core (fraction IV) was dissolved in 1 ml pyridine in a 50 ml tube. Reaction is started by adding 0.2 ml of acyl chloride (Tigloyl chloride, angeloyl chloride, Acetyl chloride, Crotonoyl chloride, 3,3-Dimethylacryloyl chloride(senecioyl chloride), Cinnamoyl chloride, Pentenoyl chloride, Hexanoyl chloride, benzoyl chloride or Ethylbutyryl chloride). The mixture is stirred for 5 sec, 1 min, 2 min, 5 min, 10 min, 30 min, 1 hr, 2 hr, 18 hr, 2 days or 3 days at 0° C., 25° C. or 75° C. temperature. At the end of reaction, 5 ml of 2N HCl or 1 M NaHCO3 is added to the reaction mixture. The solution is then extracted 3 times with 10 ml of ethyl acetate which is then evaporated under vacuum and at 45C and lyophilization. The reaction product is dissolved in 80% acetonitrile - 0.005% Trifluoroacetic acid or DMSO; and was separated with HPLC. Selecting the HPLC fractions for isolation is according to the cytotoxic activity of the reaction product obtained at a specific reaction time. The active esterification products are purified with HPLC. The reaction product of mixtures and individual compounds are tested with MTT cytotoxic assay. Structures are determined with NMR. […]

[1] = MTT cytotoxic assay, isolated esterification products of E4A
[2] = E4A esterified with Crotonoyl chloride (Cro = Crotonoyl), compounds isolated with HPLC
[3] = E4A esterified with Acetyl chloride (Acy = Acetyl), compounds isolated with HPLC
[4] = esterification products isolated with HPLC, graded strong / moderate / weak
[5] = E4A esterified with Cinnamoyl chloride (Cin = Cinnamoyl), compounds isolated with HPLC

CCC(CC)C(=O)OCC1(C)C(O)CCC2(C)C1CCC1(C)C2CC=C2C3CC(C)(C)C(OC(=O)C(CC)CC)C(OC(=O)C(CC)CC)C3(CO)C(O)CC21C (centres unmarked) [Compound E21]
Cytotoxicity activity [1]: moderate

CC=CC(=O)OCC1(C)C(OC(=O)C=CC)CCC2(C)C1CCC1(C)C2CC=C2C3CC(C)(C)C(O)C(O)C3(CO)C(O)CC21C (centres unmarked) [Compound I31]
Cytotoxicity activity [2]: moderate

CC(=O)OCC1(C)C(OC(C)=O)CCC2(C)C1CCC1(C)C2CC=C2C3CC(C)(C)C(OC(C)=O)C(O)C3(COC(C)=O)C(OC(C)=O)CC21C (centres unmarked) [Compound H17]
Cytotoxicity activity [3]: weak

CCC(CC)C(=O)OC1C(OC(=O)C(CC)CC)C2(CO)C(O)CC3(C)C(=CCC4C5(C)CCC(O)C(C)(CO)C5CCC43C)C2CC1(C)C (centres unmarked) [Compound E24]
Cytotoxicity activity [1]: moderate

CC(C)=CC(=O)OCC1(C)C(OC(=O)C=C(C)C)CCC2(C)C1CCC1(C)C2CC=C2C3CC(C)(C)C(O)C(OC(=O)C=C(C)C)C3(COC(=O)C=C(C)C)C(O)CC21C (centres unmarked) [Compound B14]
Cytotoxicity activity [1]: weak

CC=C(C)C(=O)OCC1(C)C(OC(=O)C(C)=CC)CCC2(C)C1CCC1(C)C2CC=C2C3CC(C)(C)C(O)C(OC(=O)C(C)=CC)C3(COC(=O)C(C)=CC)C(OC(=O)C(C)=CC)CC21C (centres unmarked) [Compound A18]
Cytotoxicity activity [1]: weak

CC=C(C)C(=O)OCC1(C)C(OC(=O)C(C)=CC)CCC2(C)C1CCC1(C)C2CC=C2C3CC(C)(C)C(O)C(OC(=O)C(C)=CC)C3(COC(=O)C(C)=CC)C(O)CC21C (centres unmarked) [Compound A9]
Cytotoxicity activity [1]: weak

CC=CC(=O)OCC1(C)C(OC(=O)C=CC)CCC2(C)C1CCC1(C)C2CC=C2C3CC(C)(C)C(OC(=O)C=CC)C(OC(=O)C=CC)C3(COC(=O)C=CC)C(OC(=O)C=CC)CC21C (centres unmarked) [Compound I19]
Cytotoxicity activity [2]: none

CC=C(C)C(=O)OCC1(C)C(OC(=O)CCCCC)CCC2(C)C1CCC1(C)C2CC=C2C3CC(C)(C)C(O)C(O)C3(COC(=O)C(C)=CC)C(O)CC21C (centres unmarked) [Tig—R—Hex—4]
Cytotoxicity activity [4]: moderate

CCC(CC)C(=O)OCC1(C)C(OC(=O)C(CC)CC)CCC2(C)C1CCC1(C)C2CC=C2C3CC(C)(C)C(OC(=O)C(CC)CC)C(OC(=O)C(CC)CC)C3(COC(=O)C(CC)CC)C(O)CC21C (centres unmarked) [Compound E15]
Cytotoxicity activity [1]: weak

CC1(C)CC2C3=CCC4C5(C)CCC(O)C(C)(COC(=O)c6ccccc6)C5CCC4(C)C3(C)CC(OC(=O)c3ccccc3)C2(COC(=O)c2ccccc2)C(O)C1OC(=O)c1ccccc1 (centres unmarked) [Compound K13]
Cytotoxicity activity (E4A esterified with 2-propenoyl chloride (Ppe = Propenoyl), compounds isolated with HPLC): weak | Cytotoxicity activity (E4A esterified with Propionyl chloride (Ppi = Propionyl), compounds isolated with HPLC): weak | Cytotoxicity activity (E4A esterified with benzoyl chloride (Ben = benzoyl), compounds isolated with HPLC): weak | Cytotoxicity activity (esterification products of core compound E4A with (2E)-2-pentenoyl chloride (2pe = 2-pentenoyl)): weak | Cytotoxicity activity (esterification products of core compound E4A with Butyryl chloride (But = Butyryl)): weak | Cytotoxicity activity (esterification products of core compound E4A with Decanoyl chloride (Dec = Decanoyl)): weak | Cytotoxicity activity (esterification products of core compound E4A with Isobutyryl chloride (Iso = Isobutyryl)): weak | Cytotoxicity activity (esterification products of core compound E4A with Myristoyl chloride (Myr = Myristoyl)): weak | Cytotoxicity activity (esterification products of core compound E4A with Octanoyl chloride (Oct = Octanoyl)): weak

CC=C(C)C(=O)OCC1(C)C(O)CCC2(C)C1CCC1(C)C2CC=C2C3CC(C)(C)C(O)C(OC(=O)C(CC)CC)C3(CO)C(O)CC21C (centres unmarked) [Tig—Eth—6]
Cytotoxicity activity [4]: moderate

CC=C(C)C(=O)OCC1(C)C(OC(=O)C(CC)CC)CCC2(C)C1CCC1(C)C2CC=C2C3CC(C)(C)C(O)C(O)C3(COC(=O)C(C)=CC)C(O)CC21C (centres unmarked) [Tig—R—Eth—4]
Cytotoxicity activity [4]: moderate

CCC(CC)C(=O)OCC1(C)C(OC(=O)C(CC)CC)CCC2(C)C1CCC1(C)C2CC=C2C3CC(C)(C)C(OC(=O)C(CC)CC)C(OC(=O)C(CC)CC)C3(COC(=O)C(CC)CC)C(OC(=O)C(CC)CC)CC21C (centres unmarked) [Compound E19]
Cytotoxicity activity [1]: none

CC(=O)OCC12C(O)CC3(C)C(=CCC4C5(C)CCC(O)C(C)(CO)C5CCC43C)C1CC(C)(C)C(OC(C)=O)C2O (centres unmarked) [Compound H25]
Cytotoxicity activity [3]: moderate

CC(C)=CC(=O)OCC1(C)C(O)CCC2(C)C1CCC1(C)C2CC=C2C3CC(C)(C)C(O)C(OC(=O)C=C(C)C)C3(CO)C(O)CC21C (centres unmarked) [Compound B30]
Cytotoxicity activity [1]: moderate

CCCCCC(=O)OCC1(C)C(O)CCC2(C)C1CCC1(C)C2CC=C2C3CC(C)(C)C(O)C(O)C3(CO)C(OC(=O)CCCCC)CC21C (centres unmarked) [Compound D32]
Cytotoxicity activity [1]: moderate

CC(=O)OCC1(C)C(O)CCC2(C)C1CCC1(C)C2CC=C2C3CC(C)(C)C(O)C(OC(C)=O)C3(COC(C)=O)C(O)CC21C (centres unmarked) [Compound H5]
Cytotoxicity activity [3]: moderate

CC=C(C)C(=O)OCC1(C)C(O)CCC2(C)C1CCC1(C)C2CC=C2C3CC(C)(C)C(OC(=O)C=Cc4ccccc4)C(O)C3(COC(=O)C(C)=CC)C(O)CC21C (centres unmarked) [Tig—R—Cin—2]
Cytotoxicity activity [4]: moderate

CC(C)=CC(=O)OCC1(C)C(O)CCC2(C)C1CCC1(C)C2CC=C2C3CC(C)(C)C(OC(=O)C=C(C)C)C(O)C3(COC(=O)C=C(C)C)C(OC(=O)C=C(C)C)CC21C (centres unmarked) [Compound B13]
Cytotoxicity activity [1]: weak

CC1(C)CC2C3=CCC4C5(C)CCC(OC(=O)C=Cc6ccccc6)C(C)(COC(=O)C=Cc6ccccc6)C5CCC4(C)C3(C)CC(OC(=O)C=Cc3ccccc3)C2(COC(=O)C=Cc2ccccc2)C(OC(=O)C=Cc2ccccc2)C1OC(=O)C=Cc1ccccc1 (centres unmarked) [Compound J19]
Cytotoxicity activity [5]: none

CC=C(C)C(=O)OCC1(C)C(O)CCC2(C)C1CCC1(C)C2CC=C2C3CC(C)(C)C(OC(=O)CCCCC)C(O)C3(COC(=O)CCCCC)C(O)CC21C (centres unmarked) [Tig—Hex—2]
Cytotoxicity activity [4]: moderate

C=CCCC(=O)OCC1(C)C(O)CCC2(C)C1CCC1(C)C2CC=C2C3CC(C)(C)C(O)C(O)C3(COC(=O)CCC=C)C(O)CC21C (centres unmarked) [Compound C3]
Cytotoxicity activity [1]: strong

CCC(CC)C(=O)OCC1(C)C(OC(=O)C(CC)CC)CCC2(C)C1CCC1(C)C2CC=C2C3CC(C)(C)C(OC(=O)C(CC)CC)C(O)C3(COC(=O)C(CC)CC)C(OC(=O)C(CC)CC)CC21C (centres unmarked) [Compound E17]
Cytotoxicity activity [1]: weak

CC=CC(=O)OCC1(C)C(O)CCC2(C)C1CCC1(C)C2CC=C2C3CC(C)(C)C(O)C(O)C3(CO)C(OC(=O)C=CC)CC21C (centres unmarked) [Compound I32]
Cytotoxicity activity [2]: moderate

CC=C(C)C(=O)OCC1(C)C(O)CCC2(C)C1CCC1(C)C2CC=C2C3CC(C)(C)C(O)C(OC(=O)C=C(C)C)C3(COC(=O)C(C)=CC)C(O)CC21C (centres unmarked) [Tig—R—Sen—3]
Cytotoxicity activity [4]: moderate

CC=CC(=O)OC1C(OC(=O)C=CC)C2(CO)C(OC(=O)C=CC)CC3(C)C(=CCC4C5(C)CCC(O)C(C)(CO)C5CCC43C)C2CC1(C)C (centres unmarked) [Compound I22]
Cytotoxicity activity [2]: moderate

CC(C)=CC(=O)OCC1(C)C(O)CCC2(C)C1CCC1(C)C2CC=C2C3CC(C)(C)C(O)C(OC(=O)C=C(C)C)C3(COC(=O)C=C(C)C)C(OC(=O)C=C(C)C)CC21C (centres unmarked) [Compound B12]
Cytotoxicity activity [1]: weak

CC=C(C)C(=O)OCC1(C)C(OC(=O)C=Cc2ccccc2)CCC2(C)C1CCC1(C)C2CC=C2C3CC(C)(C)C(OC(=O)C=Cc4ccccc4)C(O)C3(COC(=O)C(C)=CC)C(O)CC21C (centres unmarked) [Tig—R—Cin—5]
Cytotoxicity activity [4]: weak

CC1(C)CC2C3=CCC4C5(C)CCC(O)C(C)(COC(=O)C=Cc6ccccc6)C5CCC4(C)C3(C)CC(O)C2(CO)C(O)C1OC(=O)C=Cc1ccccc1 (centres unmarked) [Compound J29]
Cytotoxicity activity [5]: moderate
